This passage reports Ki results from patent US11447480B2, “Compound exhibiting enteropeptidase inhibitory activity” (LG CHEM, LTD., priority 2018, dated 2022).

As a reminder, the Ki is a dissociation constant, usually derived from enzyme kinetics or from competition with a known ligand.

Structures are written as SMILES.

The test concerns the target Recombinant Human Enteropeptidase (Homo sapiens (Human), UniProt P98073). Put plainly: Enteropeptidase Inhibition Assay. The class given is biochemical. Particulars: substrate Acetyl-Asp-Asp-Asp-Asp-Lys-AFC 30 μM, 30° C., 1 hour; Ki calculated from IC50 using Cheng-Prusoff equation. On the procedure:
Enteropeptidase Inhibition Assay
The inhibitory activity of the enteropeptidase inhibitor synthesized using the purified Recombinant Human Enteropeptidase and the substrate Acetyl-Asp-Asp-Asp-Asp-Lys-AFC (BioVision) was measured. 7.2 ng/mL of Enteropeptidase diluted with a buffer (20 mM Tris, 50 mM NaCl, pH 7.5) in a 96 well plate (Costar), 30 μM of Acetyl-Asp-Asp-Asp-Asp-Lys-AFC, several concentrations of Enteropeptidase inhibitors (1% DMSO concentration) were dispensed such that a final volume was 100 μL, and then the enzyme reaction was carried out at 30° C. for 1 hour. At this time, 1% DMSO, a substrate and Enteropeptidase instead of the compound were dispensed onto positive control wells, and 1% DMSO and a substrate were dispensed onto negative control wells. The enzyme reaction was […] using an excitation wavelength of 380 nm and an emission wavelength of 500 nm in a fluorescence spectrometer, and then the rate of increase in fluorescence (milli-units per min) between 20 and 60 minutes was measured.
The fluorescence measurement values reduced by the inhibitor diluted at each concentration were converted into relative values % of the positive control group (100% reactivity) and the negative control group (0% reactivity), and used to calculate IC50 values. IC50 is the concentration of the inhibitor that inhibits the enzyme activity by 50%, and was calculated using PRISM (GraphPad). Ki values were calculated from the IC50 values using Cheng-Prusoff equation.

Recombinant Human Enteropeptidase, sequence (P98073 whole entry): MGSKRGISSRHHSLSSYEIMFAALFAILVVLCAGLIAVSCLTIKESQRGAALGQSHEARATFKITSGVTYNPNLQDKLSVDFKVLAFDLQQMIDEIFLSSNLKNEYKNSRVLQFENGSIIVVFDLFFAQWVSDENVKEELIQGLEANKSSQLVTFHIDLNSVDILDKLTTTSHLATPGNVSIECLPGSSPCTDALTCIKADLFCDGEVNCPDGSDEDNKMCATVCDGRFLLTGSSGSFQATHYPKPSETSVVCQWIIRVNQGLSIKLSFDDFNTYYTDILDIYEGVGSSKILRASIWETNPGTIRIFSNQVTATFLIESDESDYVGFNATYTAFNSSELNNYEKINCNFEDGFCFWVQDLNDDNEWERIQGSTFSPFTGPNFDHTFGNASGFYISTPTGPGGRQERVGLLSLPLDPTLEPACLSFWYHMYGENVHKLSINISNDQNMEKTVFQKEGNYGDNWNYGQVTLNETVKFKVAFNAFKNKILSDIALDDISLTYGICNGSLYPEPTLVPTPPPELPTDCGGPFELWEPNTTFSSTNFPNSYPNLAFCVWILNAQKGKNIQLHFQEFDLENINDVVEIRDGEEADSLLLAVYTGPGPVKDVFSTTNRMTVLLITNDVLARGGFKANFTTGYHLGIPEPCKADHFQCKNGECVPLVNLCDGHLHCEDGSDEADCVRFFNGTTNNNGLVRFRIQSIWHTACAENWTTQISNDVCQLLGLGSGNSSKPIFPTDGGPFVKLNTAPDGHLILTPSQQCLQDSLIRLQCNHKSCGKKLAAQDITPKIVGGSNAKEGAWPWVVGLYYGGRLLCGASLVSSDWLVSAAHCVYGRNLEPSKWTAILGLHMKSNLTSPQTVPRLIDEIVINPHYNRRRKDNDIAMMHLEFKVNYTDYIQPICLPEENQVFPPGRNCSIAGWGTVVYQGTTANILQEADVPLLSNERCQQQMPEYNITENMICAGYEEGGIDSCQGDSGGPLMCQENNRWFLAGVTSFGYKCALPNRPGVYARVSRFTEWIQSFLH

Regarding `CCN(CCC(=O)OC)c1ncc(C(=O)Oc2ccc(C(=N)N)cc2F)s1` [Example 20, 4-Carbamimidoyl-2-fluorophenyl 2-(ethyl(3-methoxy-3-oxopropyl)amino) thiazole-5-carboxylate], the Ki is 2.5 nM.
Consider `CCN(CCC(=O)Nc1cccc(C(=O)OC)c1)c1ncc(C(=O)Oc2ccc(C(=N)N)cc2F)s1` [Example 51, 4-Carbamimidoyl-2-fluorophenyl 2-(ethyl(3-((3-(methoxycarbonyl)phenyl)amino)-3-oxopropyl)amino)thiazole-5-carboxylate], for which the Ki was 9.7 nM.
Under `CCN(CCC(=O)OC)c1nc2ccc(C(=O)Oc3ccc(C(=N)N)cc3)cc2s1` [Example 61, 4-Carbamimidoylphenyl 2-(ethyl(3-methoxy-3-oxopropyl)amino)benzo[d]thiazole-6-carboxylate] stands 10 nM.
Under `CCN(CC(C)(C)C(=O)OC)c1nc2ccc(C(=O)Oc3ccc(C(=N)N)cc3)cc2s1` [Example 69, 4-Carbamimidoylphenyl 2-(ethyl(3-methoxy-2,2-dimethyl-3-oxopropyl)amino)benzo[d]thiazole-6-carboxylate] stands 21 nM.
Under `N=C(N)c1ccc(OC(=O)c2ccc3nc(N4CCC(NC(=O)c5ccccc5)CC4)sc3c2)cc1` [Example 83, 4-Carbamimidoylphenyl 2-(4-benzoamidopiperidin-1-yl)benzo[d]thiazole-6-carboxylate] stands 9.7 nM; under `CN(CCCC(=O)O)c1ncc(C(=O)Oc2ccc(C(=N)N)cc2)s1` [Example 15], 5.7 nM.
Consider `CCN(CCC(=O)OC)c1ncc(C(=O)Oc2ccc(C(=N)N)cc2)s1` [Example 12, 4-Carbamimidoylphenyl 2-(ethyl(3-methoxy-3-oxopropyl)amino)thiazole-5-carboxylate], for which the Ki was 9.7 nM.
Under `CCN(CCC(=O)Nc1ccc(C(=O)OC(C)(C)C)cc1)c1ncc(C(=O)Oc2ccc(C(=N)N)cc2F)s1` [Example 52, 4-Carbamimidoyl-2-fluorophenyl 2-((3-((4-(tert-butoxycarbonyl)phenyl)amino)-3-oxopropyl)(ethyl)amino)thiazole-5-carboxylate] stands 82 nM.
With `COC(=O)C(C)(C)CNC(=O)C1CCN(c2ncc(C(=O)Oc3ccc(C(=N)N)cc3)s2)CC1` [Example 32, 4-Carbamimidoylphenyl 2-(4-((3-methoxy-2,2-dimethyl-3-oxopropyl)carbamoyl)piperidin-1-yl)thiazole-5-carboxylate], the Ki is 18 nM.
As to `CCN(CCC(=O)N[C@H](CCC(=O)OC(C)(C)C)C(=O)OC(C)(C)C)c1ncc(C(=O)Oc2ccc(C(=N)N)cc2F)s1` [Example 48], the Ki is 37 nM.
Turning to `CC(C)(CNc1nc2ccc(C(=O)Oc3ccc(C(=N)N)cc3F)cc2s1)C(=O)O` [Example 56, 3-((6-((4-Carbamimidoyl-2-fluorophenoxy)carbonyl)benzo[d]thiazol-2-yl)amino)-2,2-dimethylpropanoic Acid], the Ki is 0.59 nM.
In the case of `COC(=O)CNC(=O)C1CCN(c2ncc(C(=O)Oc3ccc(C(=N)N)cc3)s2)CC1` [Example 29, 4-Carbamimidoylphenyl 2-(4-((2-methoxy-2-oxoethyl)carbamoyl)piperidin-1-yl)thiazole-5-carboxylate], the Ki is 18 nM.
For `CCN(CCC(=O)N[C@H](CCC(=O)O)C(=O)O)c1ncc(C(=O)Oc2ccc(C(=N)N)cc2F)s1` [Example 49, (3-((5-((4-Carbamimidoyl-2-fluorophenoxy)carbonyl)thiazol-2-yl)(ethyl)amino)propanoyl)-D-glutamic Acid], the Ki was 0.57 nM.
Consider `N=C(N)Nc1ccc(OC(=O)c2cnc(N3CCC(C(=O)O)CC3)s2)cc1` [Example 6, 1-(5-((4-Guanidinophenoxy)carbonyl)thiazol-2-yl)piperidine-4-carboxylic Acid], for which the Ki is 220 nM.
Regarding `CC(C)(CNC(=O)C1CCN(c2ncc(C(=O)Oc3ccc(C(=N)N)cc3)s2)CC1)C(=O)O` [Example 36], the Ki was 9.7 nM.
Under `COC(=O)CCNC(=O)C1CCN(c2ncc(C(=O)Oc3ccc(C(=N)N)cc3)s2)CC1` [Example 30, 4-Carbamimidoylphenyl 2-(4-((3-methoxy-3-oxopropyl)carbamoyl)piperidin-1-yl)thiazole-5-carboxylate] stands 18 nM; under `CCN(CCC(=O)Nc1cccc(C(=O)OC(C)(C)C)c1)c1ncc(C(=O)Oc2ccc(C(=N)N)cc2F)s1` [Example 53], 12 nM; under `COC(=O)C1CCN(c2ncc(C(=O)Oc3ccc(NC(=N)N)cc3)s2)CC1` [Example 5, 4-Guanidinophenyl 2-(4-(methoxycarbonyl)piperidin-1-yl)thiazole-5-carboxylate], 510 nM.
Consider `N=C(N)c1ccc(OC(=O)c2cnc(N3CCC(C(=O)NCC(=O)O)CC3)s2)cc1` [Example 33], for which the Ki is 8.2 nM.
Under `N=C(N)c1ccc(OC(=O)c2cnc(N3CCC(C(=O)NCCC(=O)O)CC3)s2)c(F)c1` [Example 43, 3-(1-(5-((4-Carbamimidoyl-2-fluorophenoxy)carbonyl)thiazol-2-yl)piperidine-4-carboxamido)propanoic Acid] stands 1.7 nM; under `N=C(N)c1ccc(OC(=O)c2cnc(N3CCC(C(=O)N[C@@H](CC(=O)O)C(=O)O)CC3)s2)cc1` [Example 25], 4.7 nM.
